Test results from PubChem BioAssay (NCI).
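Test compounds were applied to cells in 96-well plates for 48 hours at 5 doses. The concentration for full growth arrest is given as TGI.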

Tests used:
Experiment in all cases: NCI tumour cell line growth inhibition, 48 h
786-0 renal = test system: 786-0 renal
A498 renal = test system: A498 renal
A549 NSCLC = test system: A549 NSCLC
ACHN renal = test system: ACHN renal
BT-549 breast = test system: BT-549 breast
CAKI-1 renal = test system: CAKI-1 renal
CCRF-CEM leukemia = test system: CCRF-CEM leukemia
COLO 205 colon = test system: COLO 205 colon
DLD-1 colon = test system: DLD-1 colon
DMS 114 small cell lung = test system: DMS 114 small cell lung
DMS 273 small cell lung = test system: DMS 273 small cell lung
DU-145 prostate = test system: DU-145 prostate
EKVX NSCLC = test system: EKVX NSCLC
HCC-2998 colon = test system: HCC-2998 colon
HCT-116 colon = test system: HCT-116 colon
HCT-15 colon = test system: HCT-15 colon
HL-60(TB) leukemia = test system: HL-60(TB) leukemia
HOP-62 NSCLC = test system: HOP-62 NSCLC
HOP-92 NSCLC = test system: HOP-92 NSCLC
HS 578T breast = test system: HS 578T breast
HT29 colon = test system: HT29 colon
IGROV1 ovarian = test system: IGROV1 ovarian
K-562 leukemia = test system: K-562 leukemia
KM12 colon = test system: KM12 colon
KM20L2 colon = test system: KM20L2 colon
LOX IMVI melanoma = test system: LOX IMVI melanoma
LXFL 529 NSCLC = test system: LXFL 529 NSCLC
M14 melanoma = test system: M14 melanoma
M19-MEL melanoma = test system: M19-MEL melanoma
MALME-3M melanoma = test system: MALME-3M melanoma
MCF7 breast = test system: MCF7 breast
MDA-MB-231 breast = test system: MDA-MB-231 breast
MDA-MB-435 = test system: MDA-MB-435
MDA-N = test system: MDA-N
MOLT-4 leukemia = test system: MOLT-4 leukemia
NCI-H226 lung = test system: NCI-H226 lung
NCI-H23 lung = test system: NCI-H23 lung
NCI-H460 lung = test system: NCI-H460 lung
NCI-H522 lung = test system: NCI-H522 lung
NCI/ADR-RES ovarian = test system: NCI/ADR-RES ovarian
OVCAR-3 ovarian = test system: OVCAR-3 ovarian
OVCAR-4 ovarian = test system: OVCAR-4 ovarian
OVCAR-5 ovarian = test system: OVCAR-5 ovarian
OVCAR-8 ovarian = test system: OVCAR-8 ovarian
PC-3 prostate = test system: PC-3 prostate
RPMI-8226 leukemia = test system: RPMI-8226 leukemia
RXF 393 renal = test system: RXF 393 renal
RXF-631 renal = test system: RXF-631 renal
SF-268 CNS = test system: SF-268 CNS
SF-295 CNS = test system: SF-295 CNS
SF-539 CNS = test system: SF-539 CNS
SK-MEL-2 melanoma = test system: SK-MEL-2 melanoma
SK-MEL-28 melanoma = test system: SK-MEL-28 melanoma
SK-MEL-5 melanoma = test system: SK-MEL-5 melanoma
SK-OV-3 ovarian = test system: SK-OV-3 ovarian
SN12C renal = test system: SN12C renal
SNB-19 CNS = test system: SNB-19 CNS
SNB-75 CNS = test system: SNB-75 CNS
SNB-78 CNS = test system: SNB-78 CNS
SR leukemia = test system: SR leukemia
SW-620 colon = test system: SW-620 colon
T-47D breast = test system: T-47D breast
TK-10 renal = test system: TK-10 renal
U251 CNS = test system: U251 CNS
UACC-257 melanoma = test system: UACC-257 melanoma
UACC-62 melanoma = test system: UACC-62 melanoma
UO-31 renal = test system: UO-31 renal
XF 498 CNS = test system: XF 498 CNS

SMILES: O=C(CC(=O)c1ccccc1NC1=Cc2ccccc2C(=O)C1=O)C(=O)NC1=C(Cl)C(=O)c2ccccc2C1=O
- TGI (786-0 renal): 10.7 µM
- TGI (A498 renal): 30.3 µM
- TGI (A549 NSCLC): 16.5 µM
- TGI (ACHN renal): 10.7 µM
- TGI (BT-549 breast): 9.14 µM
- TGI (CAKI-1 renal): 24.1 µM
- TGI (CCRF-CEM leukemia): 33.6 µM
- TGI (COLO 205 colon): 31 µM
- TGI (DLD-1 colon): 11.7 µM
- TGI (DMS 114 small cell lung): 4 µM
- TGI (DMS 273 small cell lung): 6.8 µM
- TGI (DU-145 prostate): 16.1 µM
- TGI (EKVX NSCLC): 22.4 µM
- TGI (HCC-2998 colon): 26.8 µM
- TGI (HCT-116 colon): 6.37 µM
- TGI (HCT-15 colon): 6.03 µM
- TGI (HL-60(TB) leukemia): 3.42 µM
- TGI (HOP-62 NSCLC): 17.9 µM
- TGI (HOP-92 NSCLC): 17.9 µM
- TGI (HS 578T breast): 5.64 µM
- TGI (HT29 colon): 26.1 µM
- TGI (IGROV1 ovarian): 17.6 µM
- TGI (K-562 leukemia): 9.7 µM
- TGI (KM12 colon): 15.6 µM
- TGI (KM20L2 colon): 30.5 µM
- TGI (LOX IMVI melanoma): 3.35 µM
- TGI (LXFL 529 NSCLC): 8.6 µM
- TGI (M14 melanoma): 4.12 µM
- TGI (M19-MEL melanoma): 0.931 µM
- TGI (MALME-3M melanoma): 2.49 µM
- TGI (MCF7 breast): 7.32 µM
- TGI (MDA-MB-231 breast): 8.95 µM
- TGI (MDA-MB-435): 3.36 µM
- TGI (MDA-N): 3.15 µM
- TGI (MOLT-4 leukemia): 18 µM
- TGI (NCI-H226 lung): 20.1 µM
- TGI (NCI-H23 lung): 6.25 µM
- TGI (NCI-H460 lung): 12.1 µM
- TGI (NCI-H522 lung): 4.79 µM
- TGI (NCI/ADR-RES ovarian): 7 µM
- TGI (OVCAR-3 ovarian): 7.05 µM
- TGI (OVCAR-4 ovarian): 15.1 µM
- TGI (OVCAR-5 ovarian): 12.6 µM
- TGI (OVCAR-8 ovarian): 12.2 µM
- TGI (PC-3 prostate): 6.69 µM
- TGI (RPMI-8226 leukemia): 14.5 µM
- TGI (RXF 393 renal): 7.5 µM
- TGI (RXF-631 renal): 31.9 µM
- TGI (SF-268 CNS): 11.8 µM
- TGI (SF-295 CNS): 11.7 µM
- TGI (SF-539 CNS): 9.11 µM
- TGI (SK-MEL-2 melanoma): 6.6 µM
- TGI (SK-MEL-28 melanoma): 3.71 µM
- TGI (SK-MEL-5 melanoma): 2.05 µM
- TGI (SK-OV-3 ovarian): > 83.8 µM
- TGI (SN12C renal): 3.67 µM
- TGI (SNB-19 CNS): 16.7 µM
- TGI (SNB-75 CNS): 3.19 µM
- TGI (SNB-78 CNS): 8.79 µM
- TGI (SR leukemia): 14.1 µM
- TGI (SW-620 colon): 7.98 µM
- TGI (T-47D breast): 30.6 µM
- TGI (TK-10 renal): 43.6 µM
- TGI (U251 CNS): 12.5 µM
- TGI (UACC-257 melanoma): 4.49 µM
- TGI (UACC-62 melanoma): 3.97 µM
- TGI (UO-31 renal): 20.4 µM
- TGI (XF 498 CNS): 4.66 µM
